Consider 20 compounds from patent US8618114B2 (priority 2008, dated 2013).

For orientation: IC50 means the concentration at which inhibition is half-maximal.

Where a name gives a salt, the structure may show the parent alone.

The subject of one experiment is Mice of SHK line. Put plainly: Prepulse inhibition of the startle response in mice (Apomorphine model). As to conditions: 1 mg/kg i.p. 60 minutes before the test; FIG. 17. The experiment is classed as in vivo, mouse. As for the experimental part:
Mice of SHK line weighing about 24-30 g were used in the test. The experiments were carried out during the light period of animal's diurnal. Apomorphine hydrochloride and Haloperidol were received from Sigma Chemicals Company, (USA). Apomorphine hydrochloride was dissolved in 0.1% solution of ascorbic acid prepared with sterilized water; it was introduced subcutaneously 15 minutes before the test. Haloperidol was dissolved in sterilized water using emulsifier Twin 80, it was introduced intraperitoneally 60 minutes before the test. Compounds 1.2.22(1), 1.2.22(18), 1.2.7(1) were dissolved in sterilized water and introduced intraperitoneally 60 minutes before the test. The injection volume was 10 ml/kg. 0.1%. Solution of ascorbic acid, prepared with sterilized water and Twin 80, was injected to control group of animals.
The test instrument consisted of a chamber made of transparent plexiglass (manufacturer—Columbia Instruments Company, USA) and placed on the platform; the latter was lodged inside the sound insulating chamber. A high frequency sound column transmitting acoustic stimuluses was located 2 cm away from the platform. […] The level of background noise made up 65 dB. Each animal received 4 stimuli of single testing (pulse) stimulus of 50 ms duration and 105 dB or prepulsory stimulus (pre-pulse) of 20 ms duration and 85 dB, after which in 30 ms pulse stimulus of 50 ms duration and 105 dB followed. Time interval between repeated pulse or prepulse in combination with pulse stimuli made up 10 s. Inhibition of the startle in reply to prepulse-plus-pulse stimulus was calculated in percentage towards amplitude of startle in response to isolated pulse stimulus.

Another experiment deals with male mice of SHK line. Put plainly: Novel object recognition test, Scopolamine amnesia model. It is filed as in vivo, mouse. The conditions noted are these: Scopolamine 1 mg/kg i.p. The method, then: 14.1.2. Novel object recognition test. The test was carried out in aged male mice of SHK line. […] A mouse was placed into the central chamber and allowed to explore the maze. The floor was cleaned after each animal. The sequence of chamber entries and duration of visits were registered by the observer. The test was ended after 13 entries into the dead-end chambers. Criterion for entry was a location of all animal's paws inside the chamber at the same time.
During the training the animal was placed in the maze with one equiform bowl in each side chamber. In the course of testing (one hour after training) two opposite standing bowls were replaced by identical flasks, and the animal was allowed to explore the maze. The time spent by the animal in each side chamber was registered during the periods of training and testing. Index of novel object recognition was calculated as the ratio of time spent by the animal in the side chambers with novel objects to the total time spent by it in all side chambers.

A further experiment concerns rats. Put plainly: Passive avoidance in the shuttle chamber, amnesia caused by MK-801, rats. The conditions noted are these: MK-801 0.1 mg/kg i.p., compounds injected 60 minutes before the test, FIG. 8-10. The experiment is classed as in vivo, rat.
Experiment [1] addresses T1, 5-HT6 receptor (Homo sapiens (Human), UniProt P50406). As to the kind of experiment: functional assay for serotonin 5-HT6 receptor inhibition (serotonin-induced intracellular cAMP, LANCE cAMP kit, HEK 293 cells). The experiment is classed as cell-based. The conditions noted are these: HEK 293 cells with expressed 5-HT6 receptor; reduction of serotonin-induced intracellular cAMP. As for the experimental part: Determination of antagonistic activity of compounds of the general formula 1 towards 5-HT6 receptors. Compounds of the general formula 1 were tested for their ability to prevent 5-HT6 receptors activation by serotonin. HEK 293 cells (cells of human embryo's kidney) with artificially expressed 5-HT6 receptor, activation of which by serotonin leads to increasing the concentration of intracellular cAMP, were used. The level of intracellular cAMP was determined using reagent kit LANCE cAMP (PerkinElmer) according to the method described by the manufacturer of the kit [http://las.perkinelmer.com/content/Manuals/MAN_LANCEcAMP384KitUser.pdf]. Effectiveness of the compounds was estimated by their ability to reduce the level of intracellular cAMP induced by serotonin. Table 4 presents IC50 values for the compounds of general formula 1 in the setting of functional assay for serotonin 5-HT6 receptor inhibition. The data given testify their moderate or high antagonistic activity.
A general note: TR-FRET usually uses a lanthanide donor and a delayed reading to cut background.

The target of experiment [2] is T1, 5-HT6 receptor. As to the kind of experiment: competitive radioligand binding ([3H] Lysergic acid diethylamide) to serotonin 5-HT6 receptors, HeLa cell membranes. As to conditions: read-out: IC50, competitive assay of serotonin 5-HT6 receptor inhibition; displacement of 1.5 nM [3H] Lysergic acid diethylamide, 120 min at 37° C.
Protocol: Determination of activity of the compounds of the general formula 1 in the setting of competitive binding to serotonin 5-HT6 receptors.
Screening of the disclosed compounds for their potential ability to interact with serotonin 5-HT6 receptors was carried out by method of radioligand binding. For this purpose membrane species were prepared from expressing recombinant human 5-HT6 receptors HeLa cells by means of their homogenization in glass homogenizer with subsequent separation of plasmatic membranes from cell nucli, mitochondria's and cell wreckages by differential centrifugation. Determination of tested compounds binding to 5-HT6 receptors was carried out according to the method described in [Monsma F J Jr, Shen Y, Ward R P, Hamblin M W and Sibley D R, Cloning and expression of a novel serotonin receptor with high affinity for tricyclic psychotropic drugs. […] After incubation the samples were filtered in vacuo on glass-microfiber filters G/F (Millipor, USA), filters were washed three times with cold solution of the medium and radioactivity was measured by scintillation counter MicroBeta 340 (PerkinElmer, USA). Nonspecific binding which made up 30% of overall binding was determined by incubation of membrane preparations with radioligand in the presence of 5 μM Serotonin (5-HT). Methiothepin was used as positive control. Binding of the tested compounds to the receptor was determined by their ability to displace the radioligand and expressed in percent of displacement. The percent of displacement was calculated according to the following equation:
[formula] wherein: TA—was overall radioactivity in the presence of radioligand only, CA—was radioactivity in the presence of radioligand and tested compound and NA—was radioactivity in the presence of radioligand and Serotonin (5 μM).
The next experiment deals with male mice of BALB/c line. As to the kind of experiment: Mice Behavior in the Elevated Plus Maze. It is filed as in vivo, mouse. The method, then:
Anxiolytic activity of compounds 1.1(11), 1.2.7(1), 1.2.6(1), 1.2.3(1), 1.2.11(1), 1.2.22(1), 1.2.22(18) in test “Mice Behavior in the Elevated Plus Maze”. The experiments were carried out in aged male mice of BALB/c line weighing about 25 g. The animals were housed 5-7 per cage with water and food available. None of the animals was acquainted with the experimental set-up before. Each experimental group included 8 animals.
The procedure used was described earlier by Lister (Lister R. G. The use of a plus-maze to measure anxiety in the mouse. Psychopharmacology, 1987; 92:180-185). Plexiglass set-up consisted of two opened arms of 30×5 cm size and two closed arms of 30×5×15 cm size. Side arms were closed with transparent plexiglass and were connected with the central zone via a platform of 5×5 cm size. The opened arms, central platform and floor were made of black plexiglass. The set-up was mounted on a metallic base which was placed 38.5 cm above the floor level.
The animals were injected intraperitoneally with placebo, Buspirone (5 mg/kg, 30 minutes before training), Lorazepam (0.05 mg/kg, 60 minutes before training) or with one of the tested compounds 1.1(11), 1.2.7(1), 1.2.6(1), 1.2.3(1), 1.2.11(1), 1.2.22(1), 1.2.22(18). Buspirone and Lorazepam were introduced in a maximal effective dose, at which side sedative effect and general decrease of exploratory activity (the number of arm entries during the test) were not observed yet.
Each mouse was placed in the maze center with its head towards the opened arm. Over a period of 5 minutes the sequence and duration of arm entries were registered by means of a computer program. Criterion for entry is a location of all animal's paws inside the arm at the same time. The index of preference was calculated as a ratio of the time spent by the animal in the opened arms as well as the number of entries into the opened arms to the total time spent by it in the opened and closed arms or, respectively, to the whole number of entries to the arms of both types. The number of defecations left by a mouse was regarded as an additional parameter characterizing the anxiety state. Being in normal state the animals usually avoid open arms (the preference index is between 0.2 and 0.3).

T1 sequence (P50406 whole entry): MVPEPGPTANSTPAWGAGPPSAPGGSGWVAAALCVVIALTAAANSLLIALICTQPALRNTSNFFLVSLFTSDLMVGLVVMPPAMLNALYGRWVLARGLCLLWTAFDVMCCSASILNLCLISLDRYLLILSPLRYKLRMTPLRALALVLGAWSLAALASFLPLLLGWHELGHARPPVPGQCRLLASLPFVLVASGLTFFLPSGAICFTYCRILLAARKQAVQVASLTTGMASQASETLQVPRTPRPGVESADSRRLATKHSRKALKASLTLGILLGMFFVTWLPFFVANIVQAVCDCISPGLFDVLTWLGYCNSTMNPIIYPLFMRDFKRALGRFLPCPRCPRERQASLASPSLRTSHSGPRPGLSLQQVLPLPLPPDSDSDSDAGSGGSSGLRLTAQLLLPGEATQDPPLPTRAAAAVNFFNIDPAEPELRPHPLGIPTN

As to `O=C(CCCN1CCC(O)(c2ccc(Cl)cc2)CC1)c1ccc(F)cc1` [Haloperidol, reference compound], the “effect on Apomorphine-disturbed prepulse inhibition of startle” value in the experiment with Mice of SHK line is on record as “prevented disturbance of prepulse inhibition of startle caused by Apomorphine”.
In the case of `CNc1nn2c(C)c(N)c(C)nc2c1S(=O)(=O)c1ccccc1.Cl` [1.2.22(1), 6-amino-5,7-dimethyl-2-methylamino-3-phenylsulfonyl-pyrazolo[1,5-a]pyrimidine], the “prevention of Scopolamine-disturbed novel object recognition” value (“prevention” for short) with male mice of SHK line (compounds i.p. 60 minutes before training, FIG. 7) is “prevent memory impairment caused by Scopolamine”. The “effect on Apomorphine-disturbed prepulse inhibition of startle” value in the experiment on Mice of SHK line was “prevented disturbance of prepulse inhibition of startle caused by Apomorphine”. Also, the “effect on amnesia caused by MK-801 (latent period, light arm stay, dark arm entries)” value in the experiment on rats is “decrease amnesia caused by MK-801”.
On to `CNc1nn2c(N3CCN(C)CC3)cc(C)nc2c1S(=O)(=O)c1ccccc1` [1.2.12(4).HCl], for which the figures for the IC50 at 5-HT6 receptor [1] and at 5-HT6 receptor [2] were 173 nM and 4.19 nM, respectively.
With `CNc1nn2c(C)c(CN)c(C)nc2c1S(=O)(=O)c1ccccc1` [1.2.22(2).HCl], the results for the half-maximal inhibitory concentration (IC50) against 5-HT6 receptor [1] and on 5-HT6 receptor [2] were 9 nM and 0.56 nM, respectively.
The like results for `CNc1nn2cccnc2c1S(=O)(=O)c1ccc(F)cc1` [1.2.1(2), 2-methylamino-3-(4-fluorophenylsulfonyl)-pyrazolo[1,5-a]pyrimidine] were, in that order, 45 nM and 18 nM.
For the compound `O=C1Nc2ccc(Cl)cc2C(c2ccccc2Cl)=NC1O` (stereo not shown) [Lorazepam, reference compound], the “anxiolytic effect in the elevated plus maze” value in the experiment on male mice of BALB/c line (Lorazepam 0.05 mg/kg i.p., 60 minutes before training) is reported as “well-marked anxiolytic effect”.
Take `Nc1c2c(nc3ccccc13)CCCC2` [Tacrine, reference compound]: in the experiment with male mice of SHK line (Tacrine 10 mg/kg i.p. 30 minutes before training), the “prevention” value is “prevented”.
In the case of `CNc1nn2c(C)ccnc2c1S(=O)(=O)c1ccccc1` [1.2.3(1), 7-methyl-2-methylamino-3-phenylsulfonyl-pyrazolo[1,5-a]pyrimidine], the half-inhibitory concentration (IC50) against 5-HT6 receptor [1] was determined as 3 nM; on 5-HT6 receptor [2], 0.74 nM.
Turning to `Cc1ccc2c(c1)c1c(n2CCc2ccc(C)nc2)CCN(C)C1` [Dimebon, reference compound], the “prevention” value with male mice of SHK line (Dimebon 0.1 mg/kg i.p. 5 minutes before training) was “prevented”.
For `O=C1CC2(CCCC2)CC(=O)N1CCCCN1CCN(c2ncccn2)CC1` [Buspirone, reference compound], the “anxiolytic effect in the elevated plus maze” value with male mice of BALB/c line (Buspirone 5 mg/kg i.p., 30 minutes before training) is “well-marked anxiolytic effect”.
As to `CNc1nn2c(OC)cc(-c3cccnc3)nc2c1S(=O)(=O)c1ccccc1` [1.2.10(3), 2-methylamino-7-methoxy-5-(pyridin-3-yl)-3-phenylsulfonyl-pyrazolo[1,5-a]pyrimidine], the half-inhibitory concentration (IC50) is 12 nM against 5-HT6 receptor [1] and less than 10 nM at 5-HT6 receptor [2].
For the compound `CNc1nn2c(C)c(CCC(=O)N(C)CCN(C)C)c(C)nc2c1S(=O)(=O)c1ccccc1` [1.2.19(2).HCl], the IC50 against 5-HT6 receptor [1] stood at 1680 nM; at 5-HT6 receptor [2], 174 nM.
The corresponding values for `CSc1nn2c(C)c(Cl)c(C)nc2c1S(=O)(=O)c1ccccc1` [1.1(4)] are 300 nM and less than 10 nM.
The corresponding values for `CSc1nn2c(C)ccnc2c1S(=O)(=O)c1ccccc1` [1.1.3(1), 7-methyl-2-methylsulfanyl-3-phenylsulfonyl-pyrazolo[1,5-a]pyrimidine] are 1110 nM and 40 nM.
The like results for `CNc1nn2c(NCCN(C)C)cc(C)nc2c1S(=O)(=O)c1ccccc1` [1.2.12(3), 7-(2-dimethylamino)ethylamino-5-methyl-2-methylamino-3-phenylsulfonyl-pyrazolo[1,5-a]pyrimidine] were, in that order, 1550 nM and 69.9 nM.
On to `CNc1nn2c(C)c(CN)c(C)nc2c1S(=O)(=O)c1cccc(Cl)c1` [1.2.22(5).HCl], for which the IC50 on 5-HT6 receptor [1] was 10 nM; at 5-HT6 receptor [2], 0.227 nM.
As to `CNc1nn2c(C)c(CCN)c(C)nc2c1S(=O)(=O)c1ccccc1` [1.2.22(3).HCl], the IC50 worked out at 45 nM against 5-HT6 receptor [1] and 0.645 nM on 5-HT6 receptor [2].
As to `CNc1nn2c(N)cc(C)nc2c1S(=O)(=O)c1ccccc1` [1.2.11(1), 7-amino-5-methyl-2-methylamino-3-phenylsulfonyl-pyrazolo[1,5-a]pyrimidine], in the experiment with male mice of BALB/c line (tested compounds i.p., FIG. 14-16), the “anxiolytic activity in the elevated plus maze” value was “anxiolytic activity analogous to the activity of control compounds”. For the same compound, the IC50 was determined as 12 nM at 5-HT6 receptor [1] and 0.293 nM on 5-HT6 receptor [2].
With `CNc1nn2cccnc2c1S(=O)(=O)c1cccc(Cl)c1` [1.2.1(4), 2-methylamino-3-(3-chlorophenylsulfonyl)-pyrazolo[1,5-a]pyrimidine], the IC50 against 5-HT6 receptor [1] came out at 24 nM; at 5-HT6 receptor [2] it was 5.01 nM.
On to `CSc1nn2c(C)c(Oc3ccccc3)c(C)nc2c1S(=O)(=O)c1ccccc1` [1.1(6)], for which the IC50 is more than 10000 nM against 5-HT6 receptor [1] and 50 nM on 5-HT6 receptor [2].
